Laboratory results as given in patent US7550506B2, “Amino acid derived prodrugs of propofol, compositions and uses thereof” (XenoPort, Inc., priority 2004, dated 2009).

Assays:
[1] = substrate 2.0 μM, 37° C.; for % of Propofol Released from Propofol Prodrugs after 60 min, Human Plasma: no cofactors; for % of Propofol Released from Propofol Prodrugs after 60 min, Human Liver S9 (0.5 mg/mL): NADPH
Procedure: (§1) The stability of propofol prodrugs were evaluated in one or more in vitro systems using a variety of tissue preparations following methods known in the art. Tissues were obtained from commercial sources (e.g., Pel-Freez Biologicals, Rogers, Ark., or GenTest Corporation, Woburn, Mass.). Experimental conditions used for the in vitro studies are described in Table 1 below. Each preparation was incubated with test compound at 37° C. for one hour. Aliquots (50 μL) were removed at 0, 30, and 60 min and quenched with 0.1% trifluoroacetic acid in acetonitrile. Samples were then centrifuged and analyzed by LC/MS/MS (see Example 134 below for method details). Stability of drug conjugates towards specific enzymes (e.g., peptidases, etc.) were also assessed in vitro by incubation with the purified enzyme.

[2] = Caco-2 homogenate S9 stability; type: in vitro ADME; details: Caco-2 homogenate S9 0.5 mg protein per mL, substrate 5.0 μM, 37° C.
Procedure: Caco-2 Homogenate S9 Stability: Caco-2 cells were grown for 21 days prior to harvesting. Culture medium was removed and cell monolayers were rinsed and scraped off into ice-cold 10 mM sodium phosphate/0.15 M potassium chloride, pH 7.4. Cells were lysed by sonication at 4° C. using a probe sonicator. Lysed cells were then transferred into 1.5 mL centrifuge vials and centrifuged at 9000 g for 20 min at 4° C. The resulting supernatant (Caco-2 cell homogenate S9 fraction) was aliquoted into 0.5 mL vials and stored at −80° C. until used.
For stability studies, prodrug (5 μM) was incubated in Caco-2 homogenate S9 fraction (0.5 mg protein per mL) for 60 min at 37° C. Concentrations of intact prodrug and released propofol were determined at zero time and 60 minutes using LC/MS/MS.

pancreatin = details: 1% (w/v) pancreatin, substrate 5.0 μM, pH 7.5, 37° C.
Procedure: as §1
Pancreatin Stability: Stability studies were conducted by incubating conjugate (5 μM) with 1% (w/v) pancreatin (Sigma, P-1625, from porcine pancreas) in 0.025 M Tris buffer containing 0.5 M NaCl (pH 7.5) at 37° C. for 60 min. The reaction was stopped by addition of 2 volumes of methanol. After centrifugation at 14,000 rpm for 10 min, the supernatant was removed and analyzed by LC/MS/MS.

[3] = oral dosing in rats (Raoof et al. 1996); cited from earlier work

| Molecule | % of Propofol Released from Propofol Prodrugs after 60 min, Human Plasma [1] | % of Propofol Released from Propofol Prodrugs after 60 min, Human Liver S9 (0.5 mg/mL) [1] | % of Propofol Released from Propofol Prodrugs after 60 min, Caco-2 S9 [2] | % of Propofol Released from Propofol Prodrugs after 60 min, Pancreatin (pancreatin) | Share of the administered drug that undergoes first pass metabolism [3] |
| --- | --- | --- | --- | --- | --- |
| CC(C)c1cccc(C(C)C)c1OC(=O)OC(C)C(NC(=O)CN)C(=O)O (stereo not shown) [(10), H-Gly-Thr(γ-OC(O)OPropofol)-OH] | 2% | 2% | 30% | 43% | – |
| CC(C)CC(N)C(=O)NC(C(=O)O)C(C)OC(=O)Oc1c(C(C)C)cccc1C(C)C.Cl (stereo not shown) [(26), H-Leu-Thr(γ-OC(O)OPropofol)-OH Hydrochloride] | 0% | 37% | 93% | 30% | – |
| CC(C)c1cccc(C(C)C)c1O [propofol, 2,6-diisopropylphenol] | – | – | – | – | approximately 90% |
| CSCCC(N)C(=O)NC(C(=O)O)C(C)OC(=O)Oc1c(C(C)C)cccc1C(C)C.Cl (stereo not shown) [(27), H-Met-Thr(γ-OC(O)OPropofol)-OH Hydrochloride] | 0% | 0% | 20% | 0% | – |
| CC(C)c1cccc(C(C)C)c1OC(=O)OC(C)C(NC(=O)C(N)CCCN)C(=O)O.Cl.Cl (stereo not shown) [(28), H-Orn-Thr(γ-OC(O)OPropofol)-OH Bis-Hydrochloride] | 2% | 11% | 54% | 0% | – |
| H-Ala-Thr(γ-OC(O)OPropofol)-OH Hydrochloride [(16)] | – | – | 33% | – | – |
| CC(C)c1cccc(C(C)C)c1OC(=O)OC(C)C(NC(=O)C(N)CN)C(=O)O.Cl.Cl (stereo not shown) [(24), H-Dap-Thr(γ-OC(O)OPropofol)-OH Bis-Hydrochloride] | 0% | 1% | 21% | 0% | – |
| CC(C)c1cccc(C(C)C)c1OC(=O)OC(C)C(NC(=O)C(N)CCCN=C(N)N)C(=O)O.Cl.Cl.Cl (stereo not shown) [(23), H-Arp-Thr(γ-OC(O)OPropofol)-OH Tris-Hydrochloride] | 25% | 93% | 100% | 4% | – |
| CC(C)c1cccc(C(C)C)c1OC(=O)OC(C)C(NC(=O)C(N)Cc1cnc[nH]1)C(=O)O.Cl.Cl (stereo not shown) [(25), H-His-Thr(γ-OC(O)OPropofol)-OH Bis-Hydrochloride] | 0% | 8% | 52% | 0% | – |
| CC(C)c1cccc(C(C)C)c1OC(=O)OC(C)C(NC(=O)C(N)CCCCN)C(=O)O.Cl.Cl (stereo not shown) [(18), H-Lys-Thr(γ-OC(O)OPropofol)-OH Bis-Hydrochloride] | 12% | 32% | 33% | 1% | – |
